# Like-named read-outs stand apart in the source and are kept apart here. Where a SMILES comes first, the peptide text is derived from it. The star is where a group is joined. Myristoyl = CCCCCCCCCCCCCC(=O)*; Lauroyl = CCCCCCCCCCCC(=O)*; Decanoyl = CCCCCCCCCC(=O)*; Octanoyl = CCCCCCCC(=O)*; Hexanoyl = CCCCCC(=O)*
# Assays:
# [1] = RP-HPLC retention time (hydrophobicity); type: physicochemical; details: stated to reliably reflect the hydrophobicity in aqueous solution, assessed and provided by GenScript
# Protocol: GenScript (Piscataway, NJ, USA) carried out the custom synthesis of USCLs by using high efficient solid phase peptide synthesis. The fatty acid was conjugated to the N-terminus of the peptide using the same procedure followed to attach protected amino acids to the growing peptide chain for synthesis. The purity (>90%), sequence and molecular weight of USCLs were assessed and provided by GenScript using RP-HPLC and ESI-MS. USCLs were dissolved in sterile water or DMSO at 10 mg/mL, according to manufacturer's indications.
# [2] = tested on: S. aureus ATCC 25923; type: cell-based, Staphylococcus aureus
# Source text: (§1) Bacteria used in this study were Escherichia coli ATCC 25922 and O18K1H7, Staphylococcus aureus ATCC 25923 and ATCC 29213, Pseudomonas aeruginosa ATCC 27853, Staphylococcus epidermidis ATCC 12228, Enterococcus faecalis ATCC 29212, Bacillus subtilis DSM 4181, Listeria monocytogenes DSM 20600, Salmonella typhimurium ATCC 14028, Acinetobacter baumannii ATCC 19606 and 17978, Klebsiella pneumoniae ATCC 13883 and 700603, Stenotrophomonas maltophilia ATCC 13637 and Burkholderia cenocepacia J2315. In addition to reference strains, a clinical isolate of E. faecalis vancomycin-resistant (VREF, strain M), and three clinical isolates of S. aureus methicillin-resistant (MRSA, strains E, G and 11), kindly provided by Dr. Lucilla Dolzani, were used. All MRSA strains are resistant to GEN, IPM, OXA, PEN, CIP and CEF; the S. aureus E strain is also resistant to CLI and ERY. VREF strain is resistant to AMK, ATM, GEN, NET, PEN, TEC, TET, TOB and VAN.
# (§2) For the assays, overnight bacterial cultures were diluted 1:30 in fresh Mueller-Hinton Broth (MHB, Difco) and incubated at 37°C with shaking for approximately 2h.
# (§3) The antimicrobial activity of USCLs was determined by the Minimum Inhibitory Concentration (MIC) assay, according to the guidelines of CLSI (Clinical & Laboratory Standards Institute) and described in [30, 31]. Briefly, the assays were performed in 96-well microplates in appropriate broth (MHB or SAB). […] For bacteria, a mid-log phase bacterial suspension at 2.5 × 10^5 CFU/mL in MHB was used, and the microplates incubated at 37°C for 24h. The fungal suspension in SAB broth was used at a final concentration of 5 × 10^4 cells/mL. Microplates were then incubated at 30°C for 48h. The MIC value was taken as the lowest concentration of USCLs resulting in the complete inhibition of visible bacterial or fungal growth after appropriate incubation time. Results derive from at least three independent experiments carried out in duplicate.
# [3] = tested on: P. aeruginosa ATCC 27853; type: cell-based, Pseudomonas aeruginosa
# Source text: as §1, §2, §3
# [4] = tested on: E. coli ATCC 25922; type: cell-based, Escherichia coli
# Source text: as §1, §2, §3
# [5] = tested on: S. aureus 11 (MRSA clinical isolate); type: cell-based, Staphylococcus aureus; details: 11 ( clinical isolate, 24 h)
# Source text: as §1, §2, §3
# [6] = tested on: S. aureus E (MRSA clinical isolate); type: cell-based, Staphylococcus aureus; details: E ( clinical isolate, 24 h)
# Source text: as §1, §2, §3
# [7] = tested on: S. aureus G (MRSA clinical isolate); type: cell-based, Staphylococcus aureus; details: G ( clinical isolate, 24 h)
# Source text: as §1, §2, §3
# [8] = tested on: E. coli O18K1H7; type: cell-based, Escherichia coli; details: O18K1H7, 24 h
# Source text: as §1, §2, §3
# [9] = tested on: E. faecalis ATCC 29212; type: cell-based, Enterococcus faecalis; details: ATCC 29212, 24 h
# Source text: as §1, §2, §3
# [10] = tested on: E. faecalis M (VREF clinical isolate); type: cell-based, Enterococcus faecalis; details: M (VREF clinical isolate, 24 h)
# Source text: as §1, §2, §3
# [11] = tested on: B. subtilis DSM 4181; type: cell-based, Bacillus subtilis; details: DSM 4181, 24 h
# Source text: as §1, §2, §3
# [12] = tested on: S. typhimurium ATCC 14028; type: cell-based, Salmonella typhimurium; details: ATCC 14028, 24 h
# Source text: as §1, §2, §3
# [13] = tested on: K. pneumoniae ATCC 13883; type: cell-based, Klebsiella pneumoniae; details: ATCC 13883, 24 h
# Source text: as §1, §2, §3
# [14] = tested on: K. pneumoniae ATCC 700603; type: cell-based, Klebsiella pneumoniae; details: ATCC 700603, 24 h
# Source text: as §1, §2, §3
# [15] = tested on: S. maltophilia ATCC 13637; type: cell-based, Stenotrophomonas maltophilia; details: ATCC 13637, 48 h
# Source text: as §1, §2
# as §3, with “For bacteria, a mid-log phase bacterial suspension at 2.5 × 10^5 CFU/mL in MHB was used, and the microplates incubated at 37°C for 24h.” left out
# [16] = tested on: B. cenocepacia J2315; type: cell-based, Burkholderia cenocepacia; details: 48 h
# Source text: as §1, §2
# as §3, with “For bacteria, a mid-log phase bacterial suspension at 2.5 × 10^5 CFU/mL in MHB was used, and the microplates incubated at 37°C for 24h.” left out
# [17] = tested on: C. albicans ATCC 90029; type: cell-based, Candida albicans; details: ATCC 90029, 48 h
# Protocol: (§4) Fungal strains used were Candida albicans ATCC 90029 and SC5314. Fungi were grown on Sabouraud dextrose (SAB, Difco) agar plates at 30°C for 48h. The initial fungal inoculum was prepared by picking and suspending five colonies in 5 mL of sterile PBS.
# as §3
# [18] = tested on: C. albicans SC 5314; type: cell-based, Candida albicans; details: SC 5314, 48 h
# Protocol: as §4, §3
# [19] = MHB, 2.5 × 10^5 CFU/mL, 24h at 37°C, at least three independent experiments in duplicate
Compound,Retention time [1] [min],"MIC ([2]; ATCC 25923, 24 h)","MIC ([3]; ATCC 27853, 24 h) [µg/mL]","MIC ([4]; ATCC 25922, 24 h)",further results
"CCCCCCCCCCCCCC(=O)N[C@@H](CCCNC(=N)N)C(=O)N[C@@H](Cc1ccccc1)C(=O)N[C@@H](Cc1c[nH]c2ccccc12)C(=O)N[C@@H](CCCNC(=N)N)C(N)=O [Lp-F^Myr, Myr-RFWR-NH2] (Myristoyl-RFWR-NH2)",26.654,6.25 µg/mL,50,–,–
"CCCCCCCCCCCC(=O)N[C@@H](CCCNC(=N)N)C(=O)N[C@@H](C)C(=O)N[C@@H](Cc1c[nH]c2ccccc12)C(=O)N[C@@H](CCCNC(=N)N)C(N)=O [Lp-A, Lau-RAWR-NH2] (Lauroyl-RAWR-NH2)",18.931,6.25 µg/mL,25,–,–
"CCCCCCCCCCCC(=O)N[C@@H](CCCNC(=N)N)C(=O)N[C@@H](CS)C(=O)N[C@@H](Cc1c[nH]c2ccccc12)C(=O)N[C@@H](CCCNC(=N)N)C(N)=O [Lp-C, Lau-RCWR-NH2] (Lauroyl-RCWR-NH2)",22.492,50 µg/mL,200,200 µg/mL,–
"CCCCCCCCCCCC(=O)N[C@@H](CCCNC(=N)N)C(=O)N[C@@H](CC(C)C)C(=O)N[C@@H](Cc1c[nH]c2ccccc12)C(=O)N[C@@H](CCCNC(=N)N)C(N)=O [Lp-L, Lau-RLWR-NH2] (Lauroyl-RLWR-NH2)",23.079,–,25,25 µg/mL,–
"CCCCCCCCCCCC(=O)N[C@@H](CCCNC(=N)N)C(=O)N[C@@H](Cc1c[nH]cn1)C(=O)N[C@@H](Cc1c[nH]c2ccccc12)C(=O)N[C@@H](CCCNC(=N)N)C(N)=O [Lp-H, Lau-RHWR-NH2] (Lauroyl-RHWR-NH2)",21.476,6.25 µg/mL,100,25 µg/mL,–
"CCCCCCCC(=O)N[C@@H](CCCNC(=N)N)C(=O)N[C@@H](Cc1ccccc1)C(=O)N[C@@H](Cc1c[nH]c2ccccc12)C(=O)N[C@@H](CCCNC(=N)N)C(N)=O [Lp-F^Oct, Oct-RFWR-NH2] (Octanoyl-RFWR-NH2)",17.974,100 µg/mL,100,–,–
"CCCCCCCCCCCC(=O)N[C@@H](CCCNC(=N)N)C(=O)N[C@@H](CCCNC(=N)N)C(=O)N[C@@H](Cc1c[nH]c2ccccc12)C(=O)N[C@@H](CCCNC(=N)N)C(N)=O [Lp-R, Lau-RRWR-NH2] (Lauroyl-RRWR-NH2)",21.651,3.125 µg/mL,25,12.5 µg/mL,MIC [5]: 3.125 µg/mL; MIC [6]: 3.125 µg/mL; MIC [7]: 3.125 µg/mL; MIC [8]: 25 µg/mL; MIC [9]: 6.25 µg/mL; MIC [10]: 12.5 µg/mL; MIC [11]: 1.56 µg/mL; MIC [12]: 100 µg/mL; MIC [13]: >100 µg/mL; MIC [14]: 100 µg/mL; MIC [15]: 12.5 µg/mL; MIC [16]: 50 µg/mL; MIC [17]: 1.56 µg/mL; MIC [18]: 50 µg/mL
"CCCCCCCCCCCC(=O)N[C@@H](CCCNC(=N)N)C(=O)NCC(=O)N[C@@H](Cc1c[nH]c2ccccc12)C(=O)N[C@@H](CCCNC(=N)N)C(N)=O [Lp-G, Lau-RGWR-NH2] (Lauroyl-RGWR-NH2)",18.415,6.25 µg/mL,50,25 µg/mL,–
"CCCCCC(=O)N[C@@H](CCCNC(=N)N)C(=O)N[C@@H](Cc1ccccc1)C(=O)N[C@@H](Cc1c[nH]c2ccccc12)C(=O)N[C@@H](CCCNC(=N)N)C(N)=O [Lp-F^Hex, Hex-RFWR-NH2] (Hexanoyl-RFWR-NH2)",18.675,–,–,–,"MIC ([2]; MHB, 2.5 × 10^5 CFU/mL, 24h at 37°C, at least three independent experiments in duplicate, two values when replicates differed by one well): >400 µg/mL; MIC [4, 19]: >400 µg/mL; MIC [3, 19]: >400 µg/mL"
"CCCCCCCCCCCC(=O)N[C@@H](CCCNC(=N)N)C(=O)N[C@@H](CO)C(=O)N[C@@H](Cc1c[nH]c2ccccc12)C(=O)N[C@@H](CCCNC(=N)N)C(N)=O [Lp-S, Lau-RSWR-NH2] (Lauroyl-RSWR-NH2)",16.117,6.25 µg/mL,25,25 µg/mL,–
"CCCCCCCCCC(=O)N[C@@H](CCCNC(=N)N)C(=O)N[C@@H](Cc1ccccc1)C(=O)N[C@@H](Cc1c[nH]c2ccccc12)C(=O)N[C@@H](CCCNC(=N)N)C(N)=O [Lp-F^Dec, Dec-RFWR-NH2] (Decanoyl-RFWR-NH2)",22.639,–,50,25 µg/mL,–
Lau-RFWR-NH2 [Lp-F^Lau],23.592,–,–,–,–
"CCCCCCCCCCCC(=O)N[C@@H](CCCNC(=N)N)C(=O)N[C@H](C(=O)N[C@@H](Cc1c[nH]c2ccccc12)C(=O)N[C@@H](CCCNC(=N)N)C(N)=O)C(C)C [Lp-V, Lau-RVWR-NH2] (Lauroyl-RVWR-NH2)",19.317,6.25 (6.25) μg/mL,–,12.5 (12.5) μg/mL,–

# Reference: paper PMC6383929, “Design, antimicrobial activity and mechanism of action of Arg-rich ultra-short cationic lipopeptides” (PLoS ONE, 2019)
